“And” between values parts separate entries of the source, which are not always exact repeats. Equal entries are not always repeated. Where two headings read alike, the source gives them in different places. Blank lines part the entries; values can stand above or below the compound they belong to. No end group written: not given here.
Columns and labels:
[1] = Solubility in aqueous buffers; type: physicochemical
Excerpt: To determine whether different phage clones target overlapping Eph receptor binding sites, the EWLS EphB1-binding peptide and the TNYL EphB4-binding peptide were chemically synthesized. […] Peptides were synthesized using Fmoc (N-(9-fluorenyl)methoxycarbonyl) chemistry and purified by high pressure liquid chromatography. Biotinylated peptides were synthesized with a carboxy-terminal GSGSK linker with biotin attached to the lysine side chain or with a carboxy-terminal GSGS sequence linked to a carboxy-terminal N-biotinyl-N′-Fmoc-ethylenediamine (Novabiochem). Matrix-assisted laser desorption ionization-time of flight mass spectrometry was used to verify proper peptide synthesis, and purity. Stock solutions of the peptides were dissolved in phosphate buffered saline (PBS, Irvine Scientific) and the pH was verified to be ˜6.5. […] Peptide concentrations were calculated based on (O)280.

[2] = biological target: T1, EphB4 (Homo sapiens, UniProt P54760); test: Inhibition of ephrin-B2 AP binding to immobilized EphB4 ectodomain
T1 construct: panned on the ectodomains of EphB1, EphB2, or EphB4 fused to human Fc
T1 sequence (P54760 16-539 limits assumed): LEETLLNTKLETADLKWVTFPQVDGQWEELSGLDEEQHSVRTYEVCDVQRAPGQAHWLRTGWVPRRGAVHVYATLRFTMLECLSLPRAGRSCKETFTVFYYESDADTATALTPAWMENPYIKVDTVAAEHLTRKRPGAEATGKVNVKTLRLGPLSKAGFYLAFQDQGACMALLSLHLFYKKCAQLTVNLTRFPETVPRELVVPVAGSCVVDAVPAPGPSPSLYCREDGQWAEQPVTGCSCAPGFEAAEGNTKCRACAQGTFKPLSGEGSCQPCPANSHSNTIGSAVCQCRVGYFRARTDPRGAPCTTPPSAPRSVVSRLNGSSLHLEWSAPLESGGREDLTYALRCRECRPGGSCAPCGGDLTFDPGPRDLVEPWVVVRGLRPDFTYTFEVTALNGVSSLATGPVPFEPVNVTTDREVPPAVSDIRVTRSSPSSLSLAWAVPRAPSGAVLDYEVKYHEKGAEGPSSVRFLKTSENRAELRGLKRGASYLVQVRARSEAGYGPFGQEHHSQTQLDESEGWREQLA
Procedure: Peptides that bind to the same receptor region as the ephrins would be expected to inhibit Eph receptor-ephrin association, if they interact with sufficient affinity. A number of synthetic peptides were tested for their ability to inhibit binding of alkaline phosphatase-tagged ephrin-B2 (ephrin-B2-AP) to EphB receptors (FIG. 3). Most of the peptides were synthesized with a biotin tag and immobilized on streptavidin plates to verify their ability to capture the EphB ectodomains used for their isolation.
Ephrin-B2 AP binding to the indicated immobilized EphB receptor ectodomains was measured in the presence of the indicated peptides and detected by measuring alkaline phosphatase activity. […]. […] Wells coated with the different EphB ectodomains were incubated with ephrin-B2 AP and 50 μM of the indicated peptides. Ephrin-B2 AP binding in the presence of peptide was normalized to binding in the absence of peptide. All peptides were biotinylated except for FSPQ and EWYM. […] Therefore, IPWT was not used for further experiments. The EWYM, TWO, and FSPQ peptides were not synthesized with a biotin tag and therefore were tested directly for inhibition of ephrin-B2 binding. The EWLS, SNEW, and TNYL peptides were selective because they antagonized ephrin binding to only one EphB receptor (FIGS. 3B, D, and F).
The GP motif aligns with the GP motif of TNYL and the RAW motif aligns precisely next to the last amino acid of TNYL. […] For competition assays between peptides and ephrin-B2 alkaline phosphatase fusion protein (ephrin-B2 AP), the concentration of ephrin-B2 AP used was adjusted to obtain similar signals with different EphB receptors (0.135-1.45 OD min^−1ml^−1). Ephrin-B2 AP was co-incubated for 1 hr with different peptide concentrations in Ni-NTA wells coated with 1 μg/ml Eph receptor Fc. After several washes, the amount of ephrin-B2-AP bound was quantified using p-nitrophenylphosphate as a substrate. Alkaline phosphatase activity from wells without EphB Fc was subtracted as background. […] […]. In these experiments, the two peptides are not biotinylated. […] Ephrin-B2-AP binding in the presence of peptide was normalized to binding in the absence of peptide in (A) and (B). […] Endogenous EphB4 was immunoprecipitated from MCF7 breast cancer cells after stimulation with ephrin-B2 Fc, or Fc as a control, and probed by immunoblotting with anti-phosphotyrosine antibodies (PTyr). […] The filters were reprobed with EphB4 antibodies to confirm equal amounts of immunoprecipitated receptor.

[3] = biological target: T2, EphB4 (Homo sapiens, UniProt P54760); test: Peptide pull-down of EphB4 from MCF7 or transfected 293T cells; type: binding
T2 construct: MCF-7 human breast cancer cells, which endogenously express EphB4; endogenous in cells; host or cells: MCF7
T2 sequence (P54760 16-987): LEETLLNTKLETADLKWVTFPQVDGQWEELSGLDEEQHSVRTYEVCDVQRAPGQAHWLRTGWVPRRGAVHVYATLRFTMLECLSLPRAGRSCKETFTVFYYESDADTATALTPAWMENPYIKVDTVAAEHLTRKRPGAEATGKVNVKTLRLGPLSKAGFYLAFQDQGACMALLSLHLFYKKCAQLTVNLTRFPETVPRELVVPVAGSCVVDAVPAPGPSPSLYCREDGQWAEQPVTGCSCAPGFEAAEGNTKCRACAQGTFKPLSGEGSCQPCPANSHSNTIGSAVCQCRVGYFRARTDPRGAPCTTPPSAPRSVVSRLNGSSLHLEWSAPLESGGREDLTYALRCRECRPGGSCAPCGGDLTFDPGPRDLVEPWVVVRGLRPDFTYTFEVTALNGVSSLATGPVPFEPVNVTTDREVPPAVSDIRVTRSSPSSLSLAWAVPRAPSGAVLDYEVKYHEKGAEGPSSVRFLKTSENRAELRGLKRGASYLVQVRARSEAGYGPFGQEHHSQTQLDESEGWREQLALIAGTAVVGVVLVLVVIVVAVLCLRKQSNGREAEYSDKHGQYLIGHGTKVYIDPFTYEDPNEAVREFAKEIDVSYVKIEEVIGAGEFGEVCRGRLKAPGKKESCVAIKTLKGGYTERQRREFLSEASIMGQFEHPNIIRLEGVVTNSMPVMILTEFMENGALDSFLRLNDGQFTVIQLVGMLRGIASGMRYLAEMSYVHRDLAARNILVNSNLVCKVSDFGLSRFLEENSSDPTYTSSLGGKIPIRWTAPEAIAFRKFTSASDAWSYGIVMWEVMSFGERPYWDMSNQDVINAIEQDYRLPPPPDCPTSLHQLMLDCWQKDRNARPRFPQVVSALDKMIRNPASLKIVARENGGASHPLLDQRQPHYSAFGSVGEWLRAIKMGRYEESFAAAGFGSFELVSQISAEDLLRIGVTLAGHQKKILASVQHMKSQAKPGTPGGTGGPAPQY
Procedure: The ability of the peptides to bind in a stable manner, which is important for both targeting and competitive inhibition, was tested in pull-down experiments. For peptide pull-down experiments, cells in 60 cm plates at 70% confluency or adult mouse brain tissue were solubilized in pull-down buffer (50 mM HEPES pH 7.5, 150 mM NaCl, 10% glycerol, 1% Triton-X100, 5 mM KCl and 1 mM EDTA). Three μg of biotinylated peptide were incubated for 45-90 min with 5 μl streptavidin agarose beads (Sigma), unbound peptide was washed away, and the beads were incubated with the cell lysates for 45-90 min. Proteins bound to the beads were separated by SDS-polyacrylamide gel electrophoresis and probed by immunoblotting with EphB1, EphB2, or EphB4 antibodies. The EphB1 antibody (Santa Cruz) was detected with a secondary anti-goat IgG peroxidase-conjugated antibody (BioRad Laboratories). The EphB2 and EphB4 antibodies were affinity-purified polyclonal antibodies to GST fusion proteins containing approximately 100 amino acids from the carboxy-terminal tails of the EphB2 or EphB4 receptors (Noren, N. K. et al. 2004 PNAS USA 101:5583-5588; Holash, J. A. & Pasquale, E. B. 1995 Devel Biol 172:683-693) and were detected with a secondary anti-rabbit IgG peroxidase-conjugated antibody (Amersham Biosciences).
Endogenous EphB receptors were isolated from lysates of mouse brain or cultured cells using the EWLS, SNEW, and TNYL peptides immobilized on streptavidin beads (FIGS. 5B, F, G and H). […] RTVA was used as a control peptide for the EphB4 pull downs. The NPVI peptide could isolate EphB4 from transfected cells but not endogenous EphB4 from MCF7 cells, which is present at lower levels (FIGS. 5B, F, G and H). […] EphB receptors were not detected bound to the beads coated with the other peptides.

[4] = system: Eph receptor Fc proteins; test: Immobilized biotinylated peptides capturing Eph receptor Fc proteins on streptavidin plates; type: binding; conditions: for Eph receptor binding selectivity of immobilized biotinylated peptide: A- and B-class Eph receptor Fc proteins
Procedure: To measure the specificity of peptide binding to Eph receptors, biotinylated peptides were immobilized on streptavidin-coated plates at 10 μM (Pierce Biotechnology, Rockford, Ill.) and incubated for 1 hr with different Eph ectodomain Fc fusion proteins at 2.5 μg/ml in binding buffer. Bound receptor was detected using an anti-Fc antibody coupled to alkaline phosphatase (Promega) with p-nitrophenylphosphate as substrate (Pierce). The background that was subtracted from the measurements was determined by omitting the Eph ectodomain.
Biotinylated peptides were immobilized on streptavidin-coated plates and used to capture Eph receptor Fc proteins. Bound receptor was detected using anti-Fc antibody coupled to alkaline phosphatase and was normalized to the value in the well with highest receptor binding.

[5] = system: EphB receptors; test: Ephrin-B2 AP binding to different EphB ectodomains in presence of peptide (selectivity); conditions: 10 μM peptide
Procedure: Ephrin-B2 AP binding to the indicated immobilized EphB receptor ectodomains was measured in the presence of the indicated peptides and detected by measuring alkaline phosphatase activity. […] Wells coated with the different EphB ectodomains were incubated with ephrin-B2 AP and 50 μM of the indicated peptides. Ephrin-B2 AP binding in the presence of peptide was normalized to binding in the absence of peptide. All peptides were biotinylated except for FSPQ and EWYM. […] The EWYM, TWO, and FSPQ peptides were not synthesized with a biotin tag and therefore were tested directly for inhibition of ephrin-B2 binding.
Ephrin-B2 AP was co-incubated for 1 hr with different peptide concentrations in Ni-NTA wells coated with 1 μg/ml Eph receptor Fc. After several washes, the amount of ephrin-B2-AP bound was quantified using p-nitrophenylphosphate as a substrate. Alkaline phosphatase activity from wells without EphB Fc was subtracted as background. […] In these experiments, the two peptides are not biotinylated. […] Ephrin-B2-AP binding in the presence of peptide was normalized to binding in the absence of peptide in (A) and (B).

[6] = biological target: T2, EphB4; test: Ephrin-B2 Fc-induced EphB4 tyrosine phosphorylation in breast cancer cells; type: cell-based; conditions: MCF7 cells
Procedure: Preincubation of COS cells with the SNEW peptide in a concentration-dependent manner blocked the ability of ephrin-B1 Fc to induce tyrosine phosphorylation, and therefore activation, of endogenous EphB2 (FIG. 4A). EphB2 was immunoprecipitated from COS cells after stimulation with ephrin-B1 Fc, or Fc as a control, in the presence of the indicated concentrations of SNEW peptide and control RTVA peptide. For EphB2 immunoprecipitations, COS cells were serum-starved in DME high glucose for 3 hrs prior to stimulation with 1 μg/ml ephrin-B1 Fc or Fc protein in the presence or absence of EphB2-binding peptides or a control peptide. […] After ephrin stimulation, the cells were lysed in modified RIPA buffer (150 mM NaCl, 1 mM EDTA, 1% Triton X-100, 1% Na deoxycholate, 0.1% SDS, 20 mM Tris pH 8.0) with protease inhibitors and 1 mM sodium orthovanadate. Cell lysates were used for immunoprecipitation with either 5 μg EphB2 antibodies or 10 μg EphB4 antibodies. […]
The GP motif aligns with the GP motif of TNYL and the RAW motif aligns precisely next to the last amino acid of TNYL. […] After several washes, the amount of ephrin-B2-AP bound was quantified using p-nitrophenylphosphate as a substrate. […]

[7] = Peptide IC50: concentration of peptide required to inhibit ephrin-B2 AP binding by 50%, biotinylated synthetic peptides except EWYM and FSPQ

Compound: CC[C@H](C)[C@H](NC(=O)[C@H](C)NC(=O)[C@H](Cc1ccccc1)NC(=O)[C@@H]1CCCN1C(=O)[C@H](CCC(=O)O)NC(=O)[C@@H](NC(=O)[C@@H](NC(=O)[C@H](Cc1c[nH]c2ccccc12)NC(=O)[C@H](Cc1c[nH]cn1)NC(=O)[C@@H](N)Cc1c[nH]c2ccccc12)[C@@H](C)O)[C@@H](C)CC)C(=O)N[C@H](C(=O)N[C@@H](CO)C(=O)O)[C@@H](C)O [SEQ ID NO 8]
Solubility in aqueous buffers [1]: low solubility

Compound: CC[C@H](C)[C@H](NC(=O)[C@@H]1CCCN1C(=O)CNC(=O)[C@H](CC(N)=O)NC(=O)[C@@H]1CCCN1C(=O)[C@H](CO)NC(=O)[C@H](Cc1ccccc1)NC(=O)[C@H](CC(C)C)NC(=O)[C@H](Cc1ccc(O)cc1)NC(=O)[C@H](CC(N)=O)NC(=O)[C@@H](N)[C@@H](C)O)C(=O)N[C@@H](C)C(=O)O [SEQ ID NO 24]
IC50 [2, 7]: ~50 µM
IC50 ([2]; non-biotinylated peptide, read-out: IC50 for inhibition of ephrin-B2 AP binding): 150 µM and ~150 µM

Compound: DHNHNLYNPWRL [SEQ ID NO 21]
IC50 [2, 7]: ~200 µM

Compound: NPVIGPIQRAWT [SEQ ID NO 27]
Pull-down of endogenous EphB4 ([3]; MCF7 breast cancer cell line): did not detectably bind
Pull-down of transfected EphB4 ([3]; transfected 293T human embryonic kidney cells): bound the more highly expressed EphB4

Further lines, with some results ahead:

Eph receptor binding selectivity of immobilized biotinylated peptide [4]: less specific
Compound: SEQ ID NO 10: 12-mer from EphB2 panning; printed DHWRI[image]PFSLSS (DHWRILPFSLSS)

Eph receptor binding selectivity of immobilized biotinylated peptide [4]: less specific
Compound: SEQ ID NO 14: 12-mer from EphB2 panning; printed SHW[image]ISPYSLLS (SHWPISPYSLLS)

Capture of the EphB ectodomain used for isolation by immobilized biotinylated peptide ([4]; EphB4): failed to bind
Compound: SEQ ID NO 34: 12-mer from EphB4 panning; printed IPWTQ[image]MAMSPM (IPWTQHMAMSPM)

IC50 ([2]; non-biotinylated peptide or dimeric ephrin-B2 Fc, read-out: IC50 for inhibition of ephrin-B2 AP binding to EphB4): ~0.015 µM
Inhibition of basal EphB4 tyrosine phosphorylation [6]: inhibited
Compound: TNYLFSPNGPIARAW [TNYL-RAW]
Selectivity of antagonism of ephrin-B2 AP binding across EphB ectodomains [5]: inhibits binding of ephrin-B2 AP to the immobilized EphB4 ectodomain but not other EphB ectodomains
Inhibition of ephrin-B2 Fc-induced EphB4 tyrosine phosphorylation ([6]; concentration-dependent): inhibited in a concentration-dependent manner EphB4 tyrosine phosphorylation

— patent US7999069B2, “EphB receptor-binding peptides” (Sanford-Burnham Medical Research Institute, priority 2005, dated 2011)
